Literature values in patent US20230149366A1, “SOLID DOSAGE FORMS OF TAFAMIDIS” (Nuray Chemicals Private Limited, priority 2021, published 2023).

Settings: Vyndaqel European Public assessment report

Solubility in vehicles commonly used in formulating soft gelatin capsules: poor solubility
Gel formation in hard gelatin capsule with standard excipients (upon contact with aqueous vehicles): formed a rigid gel structure
Compound: O=C(O)c1ccc2nc(-c3cc(Cl)cc(Cl)c3)oc2c1 [tafamidis, 2-(3,5-dichlorophenyl)-1,3-benzoxazole-6-carboxylic acid]
